Laboratory results: article PMC7558399, “In Vitro Selective Growth-Inhibitory Activities of Phytochemicals, Synthetic Phytochemical Analogs, and Antibiotics against Diarrheagenic/Probiotic Bacteria and Cancer/Normal Intestinal Cells” (Pharmaceuticals, 2020)
Converted amounts (≈) assume the structure as drawn. Like-named read-outs stand apart in the source and are kept apart here.

Tests used:
Format in all cases: cell-based
[1] = system: HT29 (ATCC HTB 38) intestinal cancer cells; assay: MTT cytotoxicity assay, HT29; conditions: Homo sapiens, HT-29, HT29, MTT, 72 h; for IC50: read-out: IC50 ± SD; for IC80: read-out: IC80 ± SD (80% inhibitory concentration of proliferation)
[2] = system: Bifidobacterium bifidum (ATCC 29521); assay: Broth microdilution MIC, B. bifidum; conditions: ATCC29521, growth inhibited by ≥80%, read-out: MIC
[3] = system: Caco-2 (ATCC HTB 37) intestinal cancer cells; assay: MTT cytotoxicity assay, Caco-2; conditions: Homo sapiens, Caco-2, MTT, 72 h; for IC50: read-out: IC50 ± SD; for IC80: read-out: IC80 ± SD (80% inhibitory concentration of proliferation)
[4] = system: FHs 74 Int (ATCC CCL 241) intestinal normal cells; assay: MTT cytotoxicity assay, FHs 74 Int; conditions: FHs74Int, 72 h, FHs 74 Int (intestinal normal cells), MTT; for IC50: read-out: IC50 ± SD; for IC80: read-out: IC80 ± SD (80% inhibitory concentration of proliferation)
[5] = system: Yersinia enterocolitica (ATCC 9610); assay: Broth microdilution MIC, Y. enterocolitica; conditions: ATCC9610, growth inhibited by ≥80%, read-out: MIC
[6] = system: Clostridium perfringens (DSMZ 11778); assay: microbe, parasite or virus in culture; conditions: DSMZ11778
[7] = system: Bifidobacterium adolescentis (DSMZ 20087); assay: Broth microdilution MIC, B. adolescentis; conditions: DSMZ20087, growth inhibited by ≥80%, read-out: MIC
[8] = system: Lactobacillus casei (DSMZ 20011); assay: Broth microdilution MIC, L. casei; conditions: Lacticaseibacillus casei, DSMZ20011; Lactobacillus casei; growth inhibited by ≥80%; read-out: MIC
[9] = system: Vibrio parahaemolyticus (ATCC 17802); assay: Broth microdilution MIC, V. parahaemolyticus; conditions: ATCC17802, growth inhibited by ≥80%, read-out: MIC
[10] = system: E. coli 0175:H7 (NCTC 12900); assay: microbe, parasite or virus in culture; conditions: Escherichia coli, NCTC12900
[11] = system: Bifidobacterium animalis spp. lactis (DSMZ 10140); assay: Broth microdilution MIC, B. animalis spp. lactis; conditions: DSMZ10140; Bifidobacterium animalis spp. lactis; growth inhibited by ≥80%; read-out: MIC
[12] = system: 21 strains (diarrheagenic and probiotic bacteria); assay: organism not typed; conditions: any of the 21 strains
[13] = system: intestinal cancer cells (HT29 and Caco-2); assay: MTT cytotoxicity assay, mean for intestinal cancer cells; conditions: for IC50: mean of HT29 and Caco-2, >512 replaced with 1024, read-out: x¯ -CC ± SD: mean IC50 for intestinal cancer cells; for IC80: read-out: x¯ -CC ± SD: mean IC80 for intestinal cancer cells
[14] = system: diarrheagenic bacteria (12 strains); assay: microbe, parasite or virus in culture; conditions: mean of 12 strains; >512 replaced with 1024; read-out: x¯ -DB ± SD: mean MIC for diarrheagenic bacteria
[15] = system: Listeria monocytogenes (ATCC 7644); assay: Broth microdilution MIC, L. monocytogenes; conditions: ATCC7644, growth inhibited by ≥80%, read-out: MIC
[16] = system: Salmonella enterica ssp. enterica serovar Enteritidis (ATCC 13076); assay: Broth microdilution MIC, Salmonella Enteritidis; conditions: Salmonella Enteritidis, growth inhibited by ≥80%, read-out: MIC
[17] = system: Bacillus cereus (ATCC 14579); assay: Broth microdilution MIC, B. cereus; conditions: ATCC14579, growth inhibited by ≥80%, median/mode, read-out: MIC
[18] = system: Enterococcus faecalis (ATCC 29212); assay: Broth microdilution MIC, E. faecalis; conditions: ATCC29212, growth inhibited by ≥80%, read-out: MIC
[19] = system: S. enterica ssp. enterica serovar Typhimurium (ATCC 14028); assay: Broth microdilution MIC, Salmonella Typhimurium; conditions: Salmonella Typhimurium, growth inhibited by ≥80%, read-out: MIC
[20] = system: Shigella flexneri (ATCC 12022); assay: microbe, parasite or virus in culture; conditions: ATCC12022
[21] = system: Lactobacillus rhamnosus (CCM 7091); assay: Broth microdilution MIC, L. rhamnosus; conditions: Lacticaseibacillus rhamnosus, CCM7091; Lactobacillus rhamnosus; growth inhibited by ≥80%; read-out: MIC
[22] = system: Bifidobacterium longum ssp. longum (DSMZ 20219); assay: Broth microdilution MIC, B. longum ssp. longum; conditions: DSMZ20219; Bifidobacterium longum ssp. longum; growth inhibited by ≥80%; read-out: MIC
[23] = system: Bifidobacterium breve (ATCC 15700); assay: Broth microdilution MIC, B. breve; conditions: ATCC15700, growth inhibited by ≥80%, read-out: MIC
[24] = system: Escherichia coli (ATCC 25922); assay: Broth microdilution MIC, E. coli; conditions: ATCC25922, growth inhibited by ≥80%, read-out: MIC
[25] = system: Lactobacillus reuteri (CCM 3625); assay: Broth microdilution MIC, L. reuteri; conditions: Limosilactobacillus reuteri, CCM3625; Lactobacillus reuteri; growth inhibited by ≥80%; read-out: MIC
[26] = system: Clostridium difficile (DSMZ 12056); assay: microbe, parasite or virus in culture; conditions: Clostridioides difficile, DSMZ12056
[27] = system: Bacteroides fragilis (ATCC 25285); assay: Broth microdilution MIC, B. fragilis; conditions: ATCC25285, growth inhibited by ≥80%, read-out: MIC
[28] = system: probiotic bacteria (9 strains); assay: Broth microdilution MIC, probiotic bacteria as a group (mean or range over strains); conditions: mean of 9 strains; >512 replaced with 1024; read-out: x¯ -PB ± SD: mean MIC for probiotic bacteria

## COc1ccc2cc3[n+](cc2c1OC)CCc1cc2c(cc1-3)OCO2 [BR, berberine chloride]
[1]
  IC50: 5 ± 1 µg/mL
  IC80: 42.1 ± 7.3 µg/mL
[2]
  MIC: 64 µg/mL
[3]
  IC50: 19.4 ± 2.9 µg/mL
  IC80: 78.9 ± 0.3 µg/mL
[4]
  IC50: 1 ± 0.1 µg/mL
  IC80: 26.4 ± 0.8 µg/mL
[5]
  MIC: > 512 µg/mL
[6]
  MIC: 256 µg/mL
[7]
  MIC: 128 µg/mL
[8]
  MIC: 64 µg/mL
[9]
  MIC: 512 µg/mL
[10]
  MIC: > 512 µg/mL
[11]
  MIC: 32 µg/mL
[12]
  MIC: ≥ 32 µg/mL
[13]
  IC50: 12.2 ± 7 µg/mL
  IC80: 60.5 ± 18.4 µg/mL
[14]
  MIC: 875 ± 256 µg/mL
[15]
  MIC: > 512 µg/mL
[16]
  MIC: > 512 µg/mL
[17]
  MIC: > 512 µg/mL
[18]
  MIC: > 512 µg/mL
[19]
  MIC: 512 µg/mL
[20]
  MIC: > 512 µg/mL
[21]
  MIC: 64 µg/mL
[22]
  MIC: 32 µg/mL
[23]
  MIC: 64 µg/mL
[24]
  MIC: > 512 µg/mL
[25]
  MIC: > 512 µg/mL
[26]
  MIC: > 512 µg/mL
[27]
  MIC: > 512 µg/mL
[28]
  MIC: 277 ± 400 µg/mL

## O=S(=O)(O)c1cc(I)c(O)c2ncccc12 [FRN, 7-iodo-8-hydroxyquinoline-5-sulfonic acid]
[1]
  IC50: 86.3 ± 12 µg/mL (≈ 246 µM)
  IC80: 149 ± 6 µg/mL (≈ 425 µM)
[2]
  MIC: 512 µg/mL (≈ 1460 µM)
[3]
  IC50: 55.2 ± 4.8 µg/mL (≈ 157 µM)
  IC80: 140 ± 26 µg/mL (≈ 398 µM)
[4]
  IC50: 22.6 ± 3.3 µg/mL (≈ 64.4 µM)
  IC80: 46 ± 2.2 µg/mL (≈ 131 µM)
[5]
  MIC: > 512 µg/mL
[6]
  MIC: 64 µg/mL (≈ 182 µM)
[7]
  MIC: 256 µg/mL (≈ 729 µM)
[8]
  MIC: 256 µg/mL (≈ 729 µM)
[9]
  MIC: 256 µg/mL (≈ 729 µM)
[10]
  MIC: > 512 µg/mL
[11]
  MIC: 512 µg/mL (≈ 1460 µM)
[12]
  MIC: ≥ 64 µg/mL
[13]
  IC50: 70.8 ± 16 µg/mL (≈ 202 µM)
  IC80: 145 ± 4.8 µg/mL (≈ 412 µM)
[14]
  MIC: 715 ± 388 µg/mL (≈ 2040 µM)
[15]
  MIC: 512 µg/mL (≈ 1460 µM)
[16]
  MIC: > 512 µg/mL
[17]
  MIC: 512 µg/mL (≈ 1460 µM)
[18]
  MIC: > 512 µg/mL
[19]
  MIC: > 512 µg/mL
[20]
  MIC: > 512 µg/mL
[21]
  MIC: 512 µg/mL (≈ 1460 µM)
[22]
  MIC: 256 µg/mL (≈ 729 µM)
[23]
  MIC: 512 µg/mL (≈ 1460 µM)
[24]
  MIC: > 512 µg/mL
[25]
  MIC: 512 µg/mL (≈ 1460 µM)
[26]; Clostridium difficile, […], read-out: MIC
  MIC: 64 µg/mL (≈ 182 µM)
[27]
  MIC: 128 µg/mL (≈ 365 µM)
[28]
  MIC: 384 ± 148 µg/mL (≈ 1090 µM)
